# Values of other authors as cited in patent publication US11083748B2 (priority 2003, dated 2021).
# Legend:
# [1] = in vivo, iv
# patients = conditions: human, in vivo
compound,measurement,setting,value
"O=C(O)CN(CCN(CC(=O)O)CC(=O)O)CC(=O)O [EDTA, ethylenediamine tetraacetic acid]",fraction of the drug remaining one hour following administration,[1],one-half
same,half-life,[1],20 to 60 min
"CC(C)(S)[C@@H](N)C(=O)O [Penicillamine, beta,beta-dimethylcysteine]",solubility in water,,freely soluble
"O=C(O)C(S)C(S)C(=O)O (stereo not shown) [Succimer, dimercaptosuccinic acid]",patients with drug-induced elevations of liver transaminases (mild and transient),patients,up to 10%
